Measurements as given in publication PMC7400457, “Profiling and Identification of Omeprazole Metabolites in Mouse Brain and Plasma by Isotope Ratio-Monitoring Liquid Chromatography-Mass Spectrometric Method” (Life, 2020).

Experiment: In vivo metabolite identification (MetID) after concomitant omeprazole/D3-omeprazole administration, mouse plasma and brain
Design: species or system Male ICR mice; key to D, i.p. route (brain): found / not found / E, i.v. route (brain): found / not found / F, p.o. route (brain): found / not found / A, i.p. route (plasma): found / not found / B, i.v. route (plasma): found / not found / C, p.o. route (plasma): found / not found: O, found; -, not found
Procedure: The LC–QTOF-MS system was consisted of a chromatographic pump system (Shimadzu CBM–20A/LC–20AD, Shimadzu Scientific Instruments, Riverwood Dr, Columbia, SC, USA), an auto-sampler system (Eksigent CTC HTS PAL, Sciex, Redwood City, CA, USA), equipped with a mass spectrometer (TripleTOF^TM 5600, Sciex, Redwood City, CA, USA). Chromatographic separation was performed using reversed-phase C18 columns (Phenomenex® Kinetex XB–C18 column; 2.1 × 50 mm for bioanalytical sample quantification and 2.1 × 100 mm for MetID). The HPLC mobile phase was comprised of distilled/deionized water containing 0.1% formic acid (phase A) and acetonitrile containing 0.1% formic acid (phase B) with a binary gradient program. The LC–gradient was optimized as follows: 3.2 min for the quantification (0–0.5 min, 5% B; 0.5–1.2 min, 5–95% B; 1.2–1.4 min, 95% B; 1.4–1.5 min, 95–5% B; and 1.5–3.2 min, 5% B with a flow rate of 0.4 mL/min) and 23 min for MetID (0–1 min, 5% B; 1–13 min, 5–40% B; 13–13.5 min, 40–45% B; 13.5–15.5 min, 45–90% B; 15.5–17.9 min, 90% B; 17.9–18 min, 90–5% B; and 18–23 min, 5% B with a flow rate of 0.3mL/min). In particular, the LC separation conditions for MetID studies were optimized where the peaks of metabolites were separated as much as possible. This was critical in searching for any relevant metabolites originated from omeprazole with unique isotope ratio 1:1.
The single reaction monitoring at high sensitivity option (SRMHS) in the product ion scan was used for the quantification of PK as well as MetID samples. The information-dependent analysis (IDA) method including high resolution TOF full scan and seven unique information-dependent product ion scans were performed for the MetID study. The ion spray voltage (ISVF) was set at 5500 V. The source gas (nebulizer [GS1, ion source gas1] and heater [GS2, ion source gas2]) was set at 50 psi, and the source temperature was set at 500 °C with the curtain gas (CUR) flow of […].
A separate in vivo MetID study was conducted. A total of 50 mg/kg (1:1 ratio of omeprazole and D3–omeprazole) was given through each administration route (p.o., i.v. and i.p.). After administration, blood and brain tissue sampling was conducted in the same manner as the previous PK studies. The collected samples were stored at −80 °C until analysis.
The plasma samples obtained from the study dosed with 50 mg/kg were collected according to the Hamilton pooling method. The pooled plasma sample (a total of 274 μL) was transferred to a clean tube, and 1 mL of ACN was added. The pretreated samples were centrifuged at 10,000 rpm for 5 min, and 1100 μL of the supernatant was evaporated to dryness under vacuum in a centrifugal evaporator (CVE–3110, Eyela, Tokyo, Japan) connected to cold trap (UT–1000, Eyela, Tokyo, Japan). The dried residue was re-constituted, shaken and centrifuged. After centrifugation, the supernatant was transferred to an LC–vial for analysis.
The metabolites of omeprazole were investigated using an LC–QTOF–MS assay. […] In this case, any metabolites having a mass difference of 3 daltons between omeprazole and its stable isotope D3–omeprazole were thoroughly searched as possible drug-related metabolites.

COc1ccc2[nH]c([S+]([O-])Cc3ncc(C)c(OC)c3C)nc2c1 (stereo not drawn) [Omeprazole]
O: D, i.p. route (brain): found / not found (50 mg/kg omeprazole/D3-omeprazole 1:1, i.p., mouse brain) | A, i.p. route (plasma): found / not found (50 mg/kg omeprazole/D3-omeprazole 1:1, i.p., mouse plasma) | E, i.v. route (brain): found / not found (50 mg/kg omeprazole/D3-omeprazole 1:1, i.v., mouse brain) | B, i.v. route (plasma): found / not found (50 mg/kg omeprazole/D3-omeprazole 1:1, i.v., mouse plasma) | F, p.o. route (brain): found / not found (50 mg/kg omeprazole/D3-omeprazole 1:1, p.o., mouse brain) | C, p.o. route (plasma): found / not found (50 mg/kg omeprazole/D3-omeprazole 1:1, p.o., mouse plasma)
